Experimental findings from patent US11452717B2, “Small molecule activators of nicotinamide phosphoribosyltransferase (NAMPT) and uses thereof” (Sanford Burnham Prebys Medical Discovery Institute, priority 2017, dated 2022) are described below.

Bounds are passed on as bounds.

This test deals with NAMPT enzyme (Homo sapiens (Human), UniProt P43490). As to the kind of experiment: Enzyme Assay and NMN Detection (NAMPT reaction, fluorescence detection of NMN). In kind it is biochemical. As to conditions: NAMPT activation, NMN formation. The method, then:
NAMPT reaction was performed in 50 mM HEPES, pH 7.5, containing 5 mM MgCl2, 0.1% Prionex, 0.005% Tween 20, and 1 mM TCEP at room temperature in Greiner 384-well black polypropylene plates. The concentration of substrates and enzymes in the final assay were as follows: ATP (120 uM), nicotinamide (5 uM), phosphoribosylpyrophosphate (6.25 uM), NAMPT enzyme (16 nM), pyrophosphatase (0.04 U/ml) in the final reaction volume 6 uL. Following 2 h incubation the reaction was stopped by addition 2.5 ul 20% acetophenone in dimethyl sulfoxide (DMSO) and 2.5 ul 2 MKOH. Plates were centrifuges and added with 10.5 ul 88% formic acid. The fluorescence (ex380/em460) was measured following another short incubation and 30 min incubation. The increased concentration of NMN was determined from a calibration curve obtained at the time of experiment.

Chain of NAMPT enzyme (P43490 whole entry, species assumed): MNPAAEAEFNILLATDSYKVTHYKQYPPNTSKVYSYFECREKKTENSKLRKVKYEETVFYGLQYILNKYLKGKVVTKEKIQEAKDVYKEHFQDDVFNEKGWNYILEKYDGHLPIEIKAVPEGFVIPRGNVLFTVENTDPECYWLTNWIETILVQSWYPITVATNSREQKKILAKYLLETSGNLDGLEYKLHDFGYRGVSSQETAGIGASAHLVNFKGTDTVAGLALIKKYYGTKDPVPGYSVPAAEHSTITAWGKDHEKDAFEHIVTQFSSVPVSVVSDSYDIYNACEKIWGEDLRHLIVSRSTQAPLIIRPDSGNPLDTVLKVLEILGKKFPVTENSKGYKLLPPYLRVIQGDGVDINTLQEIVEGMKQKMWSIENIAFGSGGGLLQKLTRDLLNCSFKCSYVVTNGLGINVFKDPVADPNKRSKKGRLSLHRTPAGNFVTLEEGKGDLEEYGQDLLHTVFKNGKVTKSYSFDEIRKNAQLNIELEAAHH

The EC50 is the concentration giving half of the maximal effect. A higher EC50 goes with weaker potency. For the compound `Cn1nc(-c2ccc(NC(=O)NCc3cn[nH]c3)cc2)c2cc(Cl)ccc21` [1-((1H-Pyrazol-4-yl)methyl)-3-(4-(5-chloro-1-methyl-1H-indazol-3-yl)phenyl)urea], the half-maximal effective concentration (EC50) (Table B-4) is 0.1 to 2 µM.

On to `O=C(NCc1cn[nH]c1)Nc1ccc(-c2ncc(-c3ccccc3)s2)cc1` [1-((1H-Pyrazol-4-yl)methyl)-3-(4-(5-phenylthiazol-2-yl)phenyl)urea], for which the EC50 (Table B-4) lay within 5 to 20 µM.

For `O=C(NCc1cn[nH]c1)Nc1ccc(S(=O)(=O)c2cn[nH]c2)cc1` [1-((1H-Pyrazol-4-yl)methyl)-3-(4-((1H-pyrazol-4-yl)sulfonyl)phenyl)urea], the half-maximal effective concentration (EC50) (Table B-4) fell in the range of 0.1 to 2 µM.

For the compound `COc1ccc(-c2ccccc2S(=O)(=O)c2ccc(NC(=O)NCc3cn[nH]c3)cc2)cn1` [1-((1H-Pyrazol-4-yl)methyl)-3-(4-((2-(6-methoxypyridin-3-yl)phenyl)sulfonyl)phenyl)urea], the half-maximal effective concentration (EC50) (Table B-4) lay in the range of 5 to 20 µM.

For the compound `O=C(NCc1cn[nH]c1)Nc1ccc(S(=O)(=O)c2ccccc2F)cc1` [1-((1H-Pyrazol-4-yl)methyl)-3-(4-((2-fluorophenyl)sulfonyl)phenyl)urea], the 50% effective concentration (EC50) (Table B-4) is less than 0.1 µM.

`O=C(NCc1cn[nH]c1)Nc1ccc(S(=O)(=O)c2ccccc2-c2ccccc2Cl)cc1` [1-((1H-Pyrazol-4-yl)methyl)-3-(4-((2′-chloro-[1,1′-biphenyl]-2-yl)sulfonyl)phenyl)urea]: the concentration for a half-maximal effect (EC50) (Table B-4) is 0.1 to 2 µM.

`Cc1ccccc1-c1ccccc1S(=O)(=O)c1ccc(NC(=O)NCc2cn[nH]c2)cc1` [1-((1H-Pyrazol-4-yl)methyl)-3-(4-((2′-methyl-[1,l′-biphenyl]-2-yl)sulfonyl)phenyl)urea] had an EC50 (Table B-4) of 0.1 to 2 µM.

For the compound `O=C(NCc1cn[nH]c1)Nc1ccc(S(=O)(=O)c2cccc(C(F)(F)F)c2)cc1` [1-((1H-Pyrazol-4-yl)methyl)-3-(4-((3-(trifluoromethyl)phenyl)sulfonyl)phenyl)urea], the EC50 (Table B-6) fell in the range of 0.1 to 2 µM.

For the setting “Table B-4”, `O=C(NCc1cn[nH]c1)Nc1ccc(S(=O)(=O)c2cccc(F)c2)cc1` [1-((1H-Pyrazol-4-yl)methyl)-3-(4-((3-fluorophenyl)sulfonyl)phenyl)urea] registered an EC50 of less than 0.1 µM.

Consider `N#Cc1cccc(-c2ccccc2S(=O)(=O)c2ccc(NC(=O)NCc3cn[nH]c3)cc2)c1` [1-((1H-Pyrazol-4-yl)methyl)-3-(4-((3′-cyano-[1,1′-biphenyl]-2-yl)sulfonyl)phenyl)urea], for which, for the setting “Table B-4”, the EC50 was 5 to 20 µM.

In the case of `COc1ccccc1-c1csc(Nc2ccc(NC(=O)NCc3cn[nH]c3)cc2)n1` [1-((1H-Pyrazol-4-yl)methyl)-3-(4-((4-(2-methoxyphenyl)thiazol-2-yl)amino)phenyl)urea], for the setting “Table B-4”, the half-maximal effective concentration (EC50) fell in the range of 0.1 to 2 µM.

Consider `COc1cccc(-c2csc(Nc3ccc(NC(=O)NCc4cn[nH]c4)cc3)n2)c1` [1-((1H-Pyrazol-4-yl)methyl)-3-(4-((4-(3-methoxyphenyl)thiazol-2-yl)amino)phenyl)urea], for which the concentration giving a half-maximal response (EC50) (Table B-4) lay within 0.1 to 2 µM.

`COc1ccc(-c2csc(Nc3ccc(NC(=O)NCc4cn[nH]c4)cc3)n2)cc1` [1-((1H-Pyrazol-4-yl)methyl)-3-(4-((4-(4-methoxyphenyl)thiazol-2-yl)amino)phenyl)urea]: the concentration giving a half-maximal response (EC50) (Table B-4) fell in the range of 0.1 to 2 µM.

For the compound `O=C(NCc1cn[nH]c1)Nc1ccc(S(=O)(=O)c2ccc(C(F)(F)F)cc2)cc1` [1-((1H-Pyrazol-4-yl)methyl)-3-(4-((4-(trifluoromethyl)phenyl)sulfonyl)phenyl)urea], where the note is “Table B-4”, the EC50 fell in the range of 0.1 to 2 µM.

`O=C(NCc1cn[nH]c1)Nc1ccc(S(=O)(=O)c2ccc(F)cc2)cc1` [1-((1H-Pyrazol-4-yl)methyl)-3-(4-((4-fluorophenyl)sulfonyl)phenyl)urea] showed a 50% effective concentration (EC50) (Table B-4) of less than 0.1 µM.

`O=C(NCc1cn[nH]c1)Nc1ccc(Nc2nc(-c3ccccc3)cs2)cc1` [1-((1H-Pyrazol-4-yl)methyl)-3-(4-((4-phenylthiazol-2-yl)amino)phenyl)urea]: for the setting “Table B-4”, the EC50 lay within 0.1 to 2 µM.

As to `N#Cc1ccc(-c2ccccc2S(=O)(=O)c2ccc(NC(=O)NCc3cn[nH]c3)cc2)cc1` [1-((1H-Pyrazol-4-yl)methyl)-3-(4-((4′-cyano-[1,1′-biphenyl]-2-yl)sulfonyl)phenyl)urea], the 50% effective concentration (EC50) (Table B-4) fell in the range of 5 to 20 µM.

For the setting “Table B-4”, `O=C(NCc1cn[nH]c1)Nc1ccc(Nc2ncc(-c3ccccc3)s2)cc1` [1-((1H-Pyrazol-4-yl)methyl)-3-(4-((5-phenylthiazol-2-yl)amino)phenyl)urea] came in with an EC50 of 0.1 to 2 µM.

For the compound `O=C(NCc1cn[nH]c1)Nc1ccc(S(=O)(=O)c2ccccc2-c2ccccc2)cc1` [1-((1H-Pyrazol-4-yl)methyl)-3-(4-([1,1′-biphenyl]-2-ylsulfonyl)phenyl)urea], the EC50 (Table B-4) was less than 0.1 µM.

For the setting “Table B-4”, `O=C(NCc1cn[nH]c1)Nc1ccc(S(=O)(=O)c2cccc(-c3ccccc3)c2)cc1` [1-((1H-Pyrazol-4-yl)methyl)-3-(4-([1,1′-biphenyl]-3-ylsulfonyl)phenyl)urea] yielded a 50% effective concentration (EC50) of 0.1 to 2 µM.

On to `O=C(NCc1cn[nH]c1)Nc1ccc(-c2nc3ccccc3s2)cc1` [1-((1H-Pyrazol-4-yl)methyl)-3-(4-(benzo[d]thiazol-2-yl)phenyl)urea], for which the 50% effective concentration (EC50) (Table B-4) fell in the range of 5 to 20 µM.

On to `O=C(NCc1cn[nH]c1)Nc1ccc(Nc2nc3ccccc3s2)cc1` [1-((1H-Pyrazol-4-yl)methyl)-3-(4-(benzo[d]thiazol-2-ylamino)phenyl)urea], for which the EC50 (Table B-4) is more than 20 µM.

For the compound `O=C(NCc1cn[nH]c1)Nc1ccc(S(=O)(=O)c2ccccn2)cc1` [1-((1H-Pyrazol-4-yl)methyl)-3-(4-(pyridin-2-ylsulfonyl)phenyl)urea], the EC50 (Table B-4) lay in the range of 0.1 to 2 µM.

As to `O=C(NCc1cn[nH]c1)Nc1ccc(S(=O)(=O)c2ccncc2)cc1` [1-((1H-Pyrazol-4-yl)methyl)-3-(4-(pyridin-4-ylsulfonyl)phenyl)urea], the EC50 (Table B-4) fell in the range of 0.1 to 2 µM.

On to `O=C(NCc1cn[nH]c1)Nc1ccc(S(=O)(=O)c2cncnc2)cc1` [1-((1H-Pyrazol-4-yl)methyl)-3-(4-(pyrimidin-5-ylsulfonyl)phenyl)urea], for which the EC50 (Table B-4) fell in the range of 0.1 to 2 µM.

`O=C(NCc1cnco1)Nc1ccc(-c2ncc(-c3ccccc3)s2)cc1` [1-(Oxazol-5-ylmethyl)-3-(4-(5-phenylthiazol-2-yl)phenyl)urea] returned an EC50 (Table B-5) of 5 to 20 µM.

`O=C(NCc1cnco1)Nc1ccc(S(=O)(=O)c2cccc(C(F)(F)F)c2)cc1` [1-(Oxazol-5-ylmethyl)-3-(4-((3-(trifluoromethyl)phenyl)sulfonyl)phenyl)urea] showed a concentration for a half-maximal effect (EC50) (Table B-5) of 0.1 to 2 µM.

For `O=C(NCc1cnco1)Nc1ccc(S(=O)(=O)c2ccc(C(F)(F)F)cc2)cc1` [1-(Oxazol-5-ylmethyl)-3-(4-((4-(trifluoromethyl)phenyl)sulfonyl)phenyl)urea], where the note is “Table B-5”, the half-maximal effective concentration (EC50) was 0.1 to 2 µM.

Compound `O=C(NCc1cnco1)Nc1ccc(Nc2nc(-c3ccccc3)cs2)cc1` [1-(Oxazol-5-ylmethyl)-3-(4-((4-phenylthiazol-2-yl)amino)phenyl)urea] registered an EC50 (Table B-5) of 2 to 5 µM.

In the case of `O=C(NCc1cnco1)Nc1ccc(Nc2ncc(-c3ccccc3)s2)cc1` [1-(Oxazol-5-ylmethyl)-3-(4-((5-phenylthiazol-2-yl)amino)phenyl)urea], the EC50 (Table B-5) was in the range of 0.1 to 2 µM.

Compound `O=C(NCc1cnco1)Nc1ccc(S(=O)(=O)c2ccccn2)cc1` [1-(Oxazol-5-ylmethyl)-3-(4-(pyridin-2-ylsulfonyl)phenyl)urea] had an EC50 (Table B-5) of 0.1 to 2 µM.

Consider `O=C(NCc1cnco1)Nc1ccc(S(=O)(=O)c2ccncc2)cc1` [1-(Oxazol-5-ylmethyl)-3-(4-(pyridin-4-ylsulfonyl)phenyl)urea], for which the EC50 (Table B-5) lay within 0.1 to 2 µM.

As to `O=C(NCc1ccccn1)Nc1ccc(OC(F)(F)F)cc1` [1-(Pyridin-2-ylmethyl)-3-(4-(trifluoromethoxy)phenyl)urea], the EC50 (Table B-3) is more than 20 µM.

Turning to `O=C(NCc1ccccn1)Nc1ccc(C(F)(F)F)cc1` [1-(Pyridin-2-ylmethyl)-3-(4-(trifluoromethyl)phenyl)urea], the EC50 (Table B-3) was more than 20 µM.

Take `Cc1ccc(NC(=O)NCc2ccccn2)cc1` [1-(Pyridin-2-ylmethyl)-3-(p-tolyl)urea]: for the setting “Table B-3”, the EC50 was more than 20 µM.

Under “Table B-3”, `O=C(NCc1cccnc1)Nc1ccc(OC(F)(F)F)cc1` [1-(Pyridin-3-ylmethyl)-3-(4-(trifluoromethoxy)phenyl)urea] showed an EC50 of more than 20 µM.

On to `O=C(NCc1cccnc1)Nc1ccc(C(F)(F)F)cc1` [1-(Pyridin-3-ylmethyl)-3-(4-(trifluoromethyl)phenyl)urea], for which the EC50 (Table B-3) was more than 20 µM.

Compound `Cc1ccc(NC(=O)NCc2cccnc2)cc1` [1-(Pyridin-3-ylmethyl)-3-(p-tolyl)urea] yielded an EC50 (Table B-3) of more than 20 µM.

For the setting “Table B-2”, `O=C(NCc1ccncc1)Nc1ccc(C(=O)N2CCc3ccccc3C2)cc1` [1-(Pyridin-4-ylmethyl)-3-(4-(1,2,3,4-tetrahydroisoquinoline-2-carbonyl)phenyl)urea] showed a concentration giving a half-maximal response (EC50) of 0.1 to 2 µM.

For the setting “Table B-6”, `O=C(NCc1ccncc1)Nc1ccc(S(=O)(=O)c2cccc(C(F)(F)F)c2)cc1` [1-(Pyridin-4-ylmethyl)-3-(4-((3-(trifluoromethyl)phenyl)sulfonyl)phenyl)urea] gave an EC50 of less than 0.1 µM.

Consider `O=C(NCc1ccncc1)Nc1ccc(S(=O)(=O)c2ccncc2)cc1` [1-(Pyridin-4-ylmethyl)-3-(4-(pyridin-4-ylsulfonyl)phenyl)urea], for which, under “Table B-6”, the EC50 fell in the range of 0.1 to 2 µM.

Consider `O=C(NCc1ccncc1)Nc1ccc(C(=O)N2CCCC2)cc1` [1-(Pyridin-4-ylmethyl)-3-(4-(pyrrolidine-1-carbonyl)phenyl)urea], for which the EC50 (Table B-2) lay in the range of 5 to 20 µM.

Under “Table B-2”, `O=C(NCc1ccncc1)Nc1ccc(OC(F)(F)F)cc1` [1-(Pyridin-4-ylmethyl)-3-(4-(trifluoromethoxy)phenyl)urea] had an EC50 of more than 20 µM.

Turning to `O=C(NCc1ccncc1)Nc1ccc(C(F)(F)F)cc1` [1-(Pyridin-4-ylmethyl)-3-(4-(trifluoromethyl)phenyl)urea], the concentration giving a half-maximal response (EC50) (Table B-2) was 5 to 20 µM.
